Experimental data as given in ChEMBL document CHEMBL1121572, “Synthetic and preliminary hemodynamic and whole animal toxicity studies on (R,S)-, (R)-, and (S)-2-methyl-3-(2,4,5-trihydroxyphenyl)alanine” (J Med Chem, 1980).

Test: Compound was tested for toxicity (lethal dose) in male white swiss mice
Format: organism-based
Conditions: mouse, in vivo

Structure (SMILES) | LD50 [mg/kg]
CC(N)Cc1ccc(O)c(O)c1 (racemic) | 576
C[C@](N)(Cc1ccc(O)c(O)c1)C(=O)O [METHYLDOPA] | 1890
CC(N)(Cc1cc(O)c(O)cc1O)C(=O)O (racemic) | 289
CC(N)Cc1cc(O)c(O)cc1O (racemic) | 320
CC(N)(Cc1ccc(O)c(O)c1)C(=O)O (racemic) [METHYLDOPA (RACEMIC)] | 1320
